Legend:
[1] = biological target: Gdx-Clo A70C/S104C; test: Tryptophan fluorescence binding to crosslinked variant; set-up: species or system Clostridales oral taxon 876; conditions: A70C/S104C under oxidizing conditions, read-out: Kd, fit to a single-site binding model
Description: Fluorescence emission spectra (λex = 280 nm, […]) were collected for 1 µM purified protein in assay buffer containing 200 mM NaCl, 10 mM HEPES, 10 mM bicine, 10 mM NaPO4, and 5 mM DM, with pH adjusted from 6.5 to 9.0. Substrate was added from a stock solution prepared in assay buffer. For Gdm^+ titrations, the change in fluorescence, F, as a function of substrate fit to a single site binding isotherm, ∆F=(Fmax[S]/Kd+[S]). (3)
For all SSM electrophysiology experiments, the shapes of the substrate-induced currents are characteristic of transport, rather than electrogenic presteady binding events. However, we sought to confirm this interpretation for at least one transporter/substrate pair. Using the structure of Gdx-Clo ([Kermani et al., 2020]), we introduced a pair of cysteines, A70C and S104C, that are within the crosslinking distance (∼6 Å) on the open side of the transporter, but that increase in distance when the transporter changes conformation. We expected that the formation of a crosslink would lock the transporter in one open conformation, impairing transport, with little effect on substrate binding (Fig. 2 C). […] Substrate exchange is restored in reducing conditions. […]

[2] = biological target: Gdx-Eco (Escherichia coli, UniProt P69937); set-up: method as in Kermani et al., 2018; Thomas et al., 2021; conditions: ref Kermani et al., 2018, Thomas et al., 2021; cited from earlier work
Sequence of Gdx-Eco (P69937 whole entry): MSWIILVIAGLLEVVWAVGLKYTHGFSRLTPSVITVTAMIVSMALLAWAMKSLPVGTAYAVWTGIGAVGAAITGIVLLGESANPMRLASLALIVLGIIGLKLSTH

SMILES: N=C(N)N [Gdm^+, guanidinium]
- Kd [1]: 560 µM
- Proton coupling stoichiometry [2]: 2 H^+: 1 Gdm^+
